Experimental data as given in US4539319A (priority 1982, dated 1985).
Where “and” joins values, the source holds several entries; their conditions need not be identical. Identical values can stand only once. Counter-ions that a name gives are not always drawn. Like-named read-outs stand apart in the source and are kept apart here.

Key:
ST from E coli P16 = test system: ST from E coli P16; parameters: species or system mice; conditions: mouse, in vivo
[1] = test system: enterotoxin induced secretion; experiment: animal or person; format: in vivo, mice; conditions: Mus musculus, po
[2] = test system: enterotoxin (culture filtrate) from enteropathogenic E coli strain P16; parameters: species or system piglets; conditions: in vivo; hydrochloride
E coli B44 = experiment: Protection of Neonatal Mice from Lethal Enteropathogenic E coli Infection; format: in vivo, E coli B44 infection in 4 day old mice; conditions: 10 mg/kg b.i.d.; for % mortality in mice dosed with compound: n = 60; for % Reduction in mortality: versus placebo
Procedure: 4 day old mice were orally dosed with 50 μl of phosphate buffered saline containing 1×10^5 organisms/ml of E coli B44. The mice were then dosed b.i.d. with either placebo or drug for four days commencing 16 hours after infection. The animals were left with their mothers throughout the experiment and a daily record of deaths was made. The experiment was terminated when no mortality was seen over a 24 hour period. (Usually 7-10 days after infection). The mortality in the drug group was then compared with the mortality in the placebo group using the following formula:
% Reduction in mortality=[(MP -MD)/MP]× 100
MP =mortality in group having placebo
MD =mortality in group receiving drug
Statistical analysis was performed using 2×2 contingency tables (single tailed `p`).

ST from E coli P155 = test system: ST from E coli P155; parameters: species or system mice; conditions: mouse, in vivo
ST from E coli 431 = test system: ST from E coli 431; parameters: species or system mice; conditions: mouse, in vivo
[3] = Determination of Therapeutic Ratios: LD50 in suckling 8 day old mice; conditions: mouse, in vivo
Procedure: LD50 determinations were made by dosing groups of suckling 8 day old mice with appropriate concentrations orally. Deaths were noted over a 7 day period and LD50s calculated using a probit regression program. ED50 determinations were carried out by dosing groups of 6-8 day old mice with appropriate concentrations orally. The percentage fluid inhibition was determined as above and ED50s calculated using a log/linear regression analysis and the formula given in the British Pharmacopoeia.
For computation of T.R.'s the standard errors of ED50 values were corrected to normalise the errors and the T.R.'s expressed as the ratio (LD50 /ED50) and standard deviation range (Table 3).

8 Bromo cyclic GMP = test system: 8 Bromo cyclic GMP; parameters: species or system mice; conditions: mouse, in vivo

For “4-Methoxy-N,N-di-amylamine-5,6,7,8-tetrahydro-1-naphthamidine, hydrochloride [Example 13]”, the “% inhibition” value (ST from E coli P16; hydrochloride) was 38% and 33%.

In the case of `CCCN(CCC)C(=N)c1ccc(OC)c2c1CCCC2` [Example 9, 4-methoxy-N',N'-di-n-propyl-5,6,7,8-tetrahydro-1-naphthamidine, hydrochloride], the “% inhibition” value (ST from E coli P16; hydrochloride) was 43% and 29%.

In the case of `COc1ccc(C(=N)N2CCCCC2)c2c1CCCC2.Cl` [Example 10, 1-[Imino(4-methoxy-5,6,7,8-tetrahydro-1-naphthyl)-methyl]piperidine, hydrochloride], the “% inhibition” value (ST from E coli P16; hydrochloride) was 33% and 35%.

In the case of `CCCCN(CCCC)C(=N)c1ccc(OC)c2c1CCCC2` [Example 11, N',N'-Di-n-butyl-4-methoxy-5,6,7,8-tetrahydro-1-naphthamidine, hydrochloride], the “% inhibition (Table 2)” value (ST from E coli P16) was 59%, the “% inhibition” value (ST from E coli P16; hydrochloride) was 59% and 32% and the ED50 [1] was 16 mg/kg. The “Mean scour score during 7 hr observation period ± SEM” value [2] was 2.1 ± 0.3 and 1.2 ± 0.2, the “% mortality in mice dosed with compound” value (E coli B44; day 2 post infection, control 31) was 25% and the “% Reduction in mortality” value (E coli B44; day 2 post infection) was 18%. The “% mortality in mice dosed with compound” value (E coli B44; day 3 post infection, control 68, *P < 0.05) was 47%, the “% Reduction in mortality” value (E coli B44; day 3 post infection) was 31% and the “% mortality in mice dosed with compound” value (E coli B44; day 4 post infection, control 79, **P < 0.01) was 53%. For the same compound, the “% Reduction in mortality” value (E coli B44; day 4 post infection) was 33%, the “% mortality in mice dosed with compound” value (E coli B44; day 5 post infection, control 84, ***P < 0.001) was 57% and the “% Reduction in mortality” value (E coli B44; day 5 post infection) was 32%. For the same compound, the “% mortality in mice dosed with compound” value (E coli B44; day 6 post infection, control 84, **P < 0.01) was 58%, the “% Reduction in mortality” value (E coli B44; day 6 post infection) was 30% and the “% mortality in mice dosed with compound” value (E coli B44; day 7 post infection, control 84, **P < 0.01) was 58%. For the same compound, the “% Reduction in mortality” value (E coli B44; day 7 post infection) was 30%, the “% inhibition” value (ST from E coli P155) was 31% and the “% inhibition” value (ST from E coli 431) was 47%. For the same compound, the selectivity ratio ([3]; po, therapeutic ratio (T.R.), standard errors of ED50 corrected, range (3.9-8.1)) was 5.6, the LD50 at 168 h ([3]; oral, 8 day old mice, deaths over 7 days, range (83-91)) was 87 mg/kg and the “% inhibition” value (8 Bromo cyclic GMP) was 42%.

With `CCCCN(CCCC)C(=N)c1ccc(OCc2ccccc2)c2c1CCCC2` [Example 12, N',N'-Di-n-butyl-4-benzyloxy-5,6,7,8-tetrahydro-1-naphthamidine, hydrochloride] the “% inhibition” value (ST from E coli P16; hydrochloride) was 70% and 52%.

With `CCCCN(CCCC)C(=N)c1ccc(OC(C)C)c2c1CCCC2` [Example 14, N',N'-di-n-butyl-4-isopropyloxy-5,6,7,8-tetrahydro-1-naphthamidine, hydrochloride] the “% inhibition” value (ST from E coli P16) was 52%.

With `CN(C)C(=N)c1ccc(OCc2ccccc2)c2c1CCCC2` [Example 15, 4-Benzyloxy-N',N'-dimethyl-5,6,7,8-tetrahydro-1-naphthamidine, hydrochloride] the “% inhibition” value (ST from E coli P16; hydrochloride) was 39% and 22%.

In the case of `CCCCN(CCCC)C(=N)c1ccc(O)c2c1CCCC2` [Example 16, N',N'-di-n-butyl-4-hydroxy-5,6,7,8-tetrahydro-1-naphthamidine hydrochloride], the “% inhibition” value (ST from E coli P16; hydrochloride) was 58% and 41%.
